Assay results as given in publication PMC5423902, “CXCL9-Derived Peptides Differentially Inhibit Neutrophil Migration In Vivo through Interference with Glycosaminoglycan Interactions” (Frontiers in Immunology, 2017).

Tests used:
[1] = Isothermal fluorescence titration (IFT), CS; format: binding; settings: for Kd: isothermal fluorescence titration, TAMRA-labeled peptide, read-out: affinity (KD) for CS
Description: (§1) To study the interaction between CXCL9(74-93) and GAGs, titration experiments were performed as described by Gerlza et al. ([46]) using TAMRA-labeled synthetic CXCL9(74-93), TAMRA-labeled synthetic CXCL9(74-103), HS (Iduron BN1, Manchester, UK), low molecular weight heparin (LMWH; Iduron BN5), and chondroitin sulfate (CS; Carbosynth, Compton, UK).

[2] = Isothermal fluorescence titration (IFT), HS; format: binding; settings: for affinity for HS: IFT, both COOH-terminal peptides compared
Description: as §1

[3] = test system: CXCL8(1-77) binding to heparin; assay: Competition with CXCL8 for binding to immobilized heparin (ELISA-like); design: species or system human; settings: heparin-coated plates, CXCL8(1-77) 0-300 nM, 2 h at 37°C; anti-CXCL8 detection, 450 nm; n ≥ 4; Figure 3A
Description: (§2) The ability of the COOH-terminal peptides of CXCL9 and CXCL4 to compete for GAG binding with the inflammatory chemokines CXCL8 and CXCL1 was evaluated on heparin-binding plates [BD Biosciences or produced by Jason Whittle (School of Engineering/Future Industries Institute, University of South Australia, Australia)] ([42], [47]). In brief, GAGs (heparin, HS, and CS; Iduron; 25 µg/ml) were coated overnight at room temperature. Dilutions of COOH-terminal CXCL9 or CXCL4 peptide combined with recombinant human CXCL8(1-77) or recombinant murine CXCL1(1-72) (Peprotech, Rocky Hill, NJ, USA) were added in duplicate and incubated for 2 h at 37°C. Subsequently, bound CXCL8 or CXCL1 was detected with biotinylated polyclonal rabbit anti-human CXCL8 or biotinylated polyclonal goat anti-mouse CXCL1 (Peprotech) and horse radish peroxidase-labeled streptavidin. Finally, the peroxidase activity was quantified at 450 nm.
(§3) Figure 3 CXCL9(74-93) competes with CXCL8 for binding to heparin, heparan sulfate (HS), and cellular glycosaminoglycans (GAGs). Competition between CXCL8 and COOH-terminal CXCL9 or CXCL4 peptides for binding to immobilized heparin (A) or HS (B) and to Chinese hamster ovary (CHO) cells (C) was performed. […] Bound CXCL8 was detected with biotinylated anti-human CXCL8 antibodies. (C) Binding of NH2-terminally biotinylated CXCL8(1-77) (300 nM) to CHO cells in the presence or absence of an excess CXCL9 peptide was detected by streptavidin-allophycocyanin and flow cytometry. The mean (± SEM) percentage inhibition of binding of CXCL8(1-77) to heparin, HS or cellular GAGs is indicated on the y-axis (n ≥ 4). Statistical comparison of the different competitors with CXCL9(74–103) was performed using the Mann–Whitney U-test (*p < 0.05).

[4] = test system: CXCL1(1-72) binding to chondroitin sulfate (CS); assay: Competition with CXCL1 for binding to immobilized CS; design: species or system murine; settings: n ≥ 3, Figure 6B; for maximum inhibition of CXCL1 binding to CS: maximum achieved
Description: as §2
(§4) Competition between CXCL1 and COOH-terminal CXCL9 peptides for binding to immobilized heparan sulfate (HS) (A) and chondroitin sulfate (CS) (B) was performed. […] Bound CXCL1 was detected with biotinylated polyclonal goat anti-mouse CXCL1 antibodies. The mean (± SEM) percentage inhibition of CXCL1 binding to GAGs is indicated on the y-axis (n ≥ 3). Statistical comparison of the different competitors with CXCL9(74–103) was performed using the Mann–Whitney U-test.

[5] = test system: CXCL8(1-77) binding to cellular GAGs on CHO cells; assay: Competition with biotinylated CXCL8 for binding to CHO cells, flow cytometry; format: cell-based, Chinese hamster; settings: mean, n ≥ 4, Figure 3C (300 nM CXCL8)
Description: (§5) Binding of biotinylated CXCL9(74-103) and CXCL9(74-93) to CHO cells was assessed by flow cytometry as recently described ([42]). Briefly, cells were detached with phosphate-buffered saline (PBS) with 0.02% ethylenediaminetetraacetic acid (EDTA) and incubated with NH2-terminally biotinylated peptides. Subsequently, cells were incubated with streptavidin-allophycocyanin (BD Biosciences, San Jose, CA, USA) and analyzed by flow cytometry (FACSCalibur, BD Biosciences). To confirm inhibition of sulfation of cellular GAGs, part of the cells were stained with a mouse monoclonal anti-human HS antibody (Immunosource, Schilde, Belgium) and a secondary phycoerythrin-labeled goat anti-mouse antibody (BD Biosciences). Finally, cells were analyzed by flow cytometry. Analogously, binding of 100 nM biotinylated CXCL8 in the presence or absence of CXCL9(74-103) or CXCL9(74-93) was compared on CHO cells.
as §3

[6] = test system: CXCL1(1-72) binding to heparan sulfate (HS); assay: Competition with CXCL1 for binding to immobilized HS; design: species or system murine; settings: n ≥ 3, Figure 6A; for reduction of CXCL1 binding to HS: mean; for maximum inhibition of CXCL1 binding to HS: maximum achieved
Description: as §2, §4

[7] = Isothermal fluorescence titration (IFT), LMWH; format: binding; settings: for affinity for LMWH: IFT, both COOH-terminal peptides compared
Description: as §1

[8] = test system: cellular GAGs on CHO cells; assay: Binding of biotinylated peptides to CHO cells (cellular GAGs), flow cytometry; format: cell-based, Chinese hamster; settings: for binding to CHO cells: NH2-terminally biotinylated peptide, streptavidin-allophycocyanin
Description: Chinese hamster ovary (CHO) cells were a gift from M. Parmentier (ULB, Brussels, Belgium) and were cultured in Ham’s F-12 medium (with L-glutamine; Lonza, Belgium) supplemented with 10% fetal calf serum (FCS) and 0.8% G418 (Geneticin®; Life Technologies), as described ([44]). To inhibit sulfation of cellular GAGs, CHO cells were cultured in the presence of 100 mM sodium chlorate (NaClO3) for 24 h as previously described ([42]).
as §5
Figure 2 CXCL9(74-93) interacts with cellular glycosaminoglycans (GAGs). The interaction of the COOH-terminal CXCL9 peptides with Chinese hamster ovary (CHO) cells was assessed by flow cytometric analysis. (A) CHO cells were treated with dilutions of NH2-terminally biotinylated CXCL9(74-103) and CXCL9(74-93), which were detected by streptavidin-allophycocyanin. (B) To ensure that the binding of CXCL9(74-93) was GAG-mediated, CHO cells were treated with sodium chlorate (NaClO3) to reduce the sulfation of GAGs. Binding of biotinylated CXCL9(74-93) to cells, treated or untreated with NaClO3, was detected by streptavidin-allophycocyanin. The mean (+SEM) fluorescence intensity of bound biotinylated CXCL9 peptides to CHO cells is indicated on the y-axis (n ≥ 4). A statistical comparison to evaluate the binding of biotinylated peptides on CHO cells [compared to the corresponding concentration of CXCL9(74-103) (A) or to the binding to cells not treated with NaClO3 (B)] was performed using the Mann–Whitney U-test (*p < 0.05; **p < 0.01).

Substance	Kd [1] [nM]	affinity for HS [2]	Kd ([2]; isothermal fluorescence titration, TAMRA-labeled peptide, biphasic binding isotherm, fit of only the initial high-affinity phase) [nM]	molar excess over CXCL8 giving 50% reduction of CXCL8 binding to heparin [3] [fold molar excess]	maximum inhibition of CXCL1 binding to CS [4] [%]	amount needed for same reduction of CXCL1 binding to CS relative to CXCL9(74-103) [4]	inhibition of binding of biotinylated CXCL8 to cellular GAGs ([5]; 30-fold excess of peptide) [%]	inhibition of binding of biotinylated CXCL8 to cellular GAGs ([5]; 100-fold excess of peptide) [%]	reduction of CXCL1 binding to HS ([6]; 10-fold molar excess) [%]	maximum inhibition of CXCL1 binding to HS [6] [%]	competition for CXCL1 binding to HS [6]	affinity for LMWH [7]	Kd ([7]; isothermal fluorescence titration, TAMRA-labeled peptide, read-out: affinity (KD value) for LMWH) [nM]	binding to CHO cells after reduction of GAG sulfation ([8]; CHO cells treated with 100 mM NaClO3 (24 h) vs untreated, biotinylated peptide, Figure 2B)	affinity to cellular GAGs relative to CXCL9(74-103) ([8]; CHO cells, biotinylated peptides, n ≥ 4, Figure 2A)	binding to CHO cells ([8]; n ≥ 4, Figure 2A)	relative affinity for CS ([1]; compared to CXCL9(74-93))	reduction of CXCL1 binding to HS ([6]; threefold molar excess compared to CXCL1) [%]
74KKKQKNGKKHQKKKVLKVRK93 [CXCL9(74-93), COOH-terminal peptide of CXCL9 lacking the 10 COOH-terminal amino acids of CXCL9(74-103)]	296 ± 19	high and comparable affinity	1	10	52	three times more	31	50	39	52	less potent competitor than CXCL9(74-103)	high and comparable affinity	63 ± 13	significantly reduced	lower affinity to cellular GAGs	dose-dependent binding	–	–
74KKKQKNGKKHQKKKVLKVRKSQRSRQKKTT103 [CXCL9(74-103), COOH-terminal peptide of CXCL9]	68 ± 4.6	high and comparable affinity	–	10	63	–	53	–	–	72	–	high and comparable affinity	–	–	–	dose-dependent binding	about fourfold higher affinity for CS	43
